Experimental data reported in ChEMBL document CHEMBL4152270, “Free radical rearrangement synthesis and microbiological evaluation of novel 2-sulfoether-4-quinolone scaffolds as potential antibacterial agents” (Eur J Med Chem, 2018).
≈ marks a conversion by molar mass, not a printed value. Calls of active or inactive are those of the source. The calls are words filed in the database; no cut-off is given here.

Legend:
[1] = system: Bacillus cereus; assay: Antimicrobial activity against Bacillus cereus after 18 to 20 hrs by micro broth dilution method; assay type: functional
[2] = system: Staphylococcus aureus; assay: Bactericidal activity against Staphylococcus aureus after 24 hrs by micro broth dilution method; assay type: functional
[3] = system: Escherichia coli; assay: Antimicrobial activity against Escherichia coli after 18 to 20 hrs by micro broth dilution method; assay type: functional
[4] = system: Staphylococcus aureus; assay: Antimicrobial activity against Staphylococcus aureus after 18 to 20 hrs by micro broth dilution method; assay type: functional
[5] = system: Bacillus cereus; assay: Bactericidal activity against Bacillus cereus after 24 hrs by micro broth dilution method; assay type: functional
[6] = system: Pseudomonas aeruginosa; assay: Antimicrobial activity against Pseudomonas aeruginosa after 18 to 20 hrs by micro broth dilution method; assay type: functional
[7] = system: Staphylococcus aureus; assay: Antimicrobial activity against methicillin-resistant Staphylococcus aureus after 18 to 20 hrs by micro broth dilution method; assay type: functional
[8] = system: Candida albicans; assay: Antimicrobial activity against Candida albicans after 18 to 20 hrs by micro broth dilution method; assay type: functional
[9] = system: Staphylococcus aureus; assay: Growth inhibition of Staphylococcus aureus at 1 to 4 times MIC after 24 hrs; assay type: functional, organism-based
[10] = system: Staphylococcus aureus; assay: Induction of morphological changes in Staphylococcus aureus ATCC 6538 assessed as shrinkage of cell morphology at 0.8 uM after 24 hrs by transmission electron microscopy; assay type: functional, organism-based
[11] = system: Staphylococcus aureus; assay: Induction of cell death in Staphylococcus aureus ATCC 6538 at 0.8 uM after 24 hrs by transmission electron microscopy; assay type: functional, organism-based
[12] = system: Staphylococcus aureus; assay: Induction of cell wall damage in Staphylococcus aureus ATCC 6538 assessed as blemishes on cell wall at 0.8 uM after 24 hrs by transmission electron microscopy; assay type: functional, organism-based
[13] = system: Staphylococcus aureus; assay: Growth inhibition of Staphylococcus aureus at 0.25 to 0.5 times MIC after 24 hrs; assay type: functional, organism-based
[14] = biological target: DNA gyrase subunit A (Staphylococcus aureus, UniProt P20831); assay: Inhibition of Staphylococcus aureus DNA gyrase subunit A supercoiling activity using relaxed pBR322 DNA as substrate after 60 mins by agarose gel electrophoresis
Sequence of DNA gyrase subunit A (P20831 whole entry): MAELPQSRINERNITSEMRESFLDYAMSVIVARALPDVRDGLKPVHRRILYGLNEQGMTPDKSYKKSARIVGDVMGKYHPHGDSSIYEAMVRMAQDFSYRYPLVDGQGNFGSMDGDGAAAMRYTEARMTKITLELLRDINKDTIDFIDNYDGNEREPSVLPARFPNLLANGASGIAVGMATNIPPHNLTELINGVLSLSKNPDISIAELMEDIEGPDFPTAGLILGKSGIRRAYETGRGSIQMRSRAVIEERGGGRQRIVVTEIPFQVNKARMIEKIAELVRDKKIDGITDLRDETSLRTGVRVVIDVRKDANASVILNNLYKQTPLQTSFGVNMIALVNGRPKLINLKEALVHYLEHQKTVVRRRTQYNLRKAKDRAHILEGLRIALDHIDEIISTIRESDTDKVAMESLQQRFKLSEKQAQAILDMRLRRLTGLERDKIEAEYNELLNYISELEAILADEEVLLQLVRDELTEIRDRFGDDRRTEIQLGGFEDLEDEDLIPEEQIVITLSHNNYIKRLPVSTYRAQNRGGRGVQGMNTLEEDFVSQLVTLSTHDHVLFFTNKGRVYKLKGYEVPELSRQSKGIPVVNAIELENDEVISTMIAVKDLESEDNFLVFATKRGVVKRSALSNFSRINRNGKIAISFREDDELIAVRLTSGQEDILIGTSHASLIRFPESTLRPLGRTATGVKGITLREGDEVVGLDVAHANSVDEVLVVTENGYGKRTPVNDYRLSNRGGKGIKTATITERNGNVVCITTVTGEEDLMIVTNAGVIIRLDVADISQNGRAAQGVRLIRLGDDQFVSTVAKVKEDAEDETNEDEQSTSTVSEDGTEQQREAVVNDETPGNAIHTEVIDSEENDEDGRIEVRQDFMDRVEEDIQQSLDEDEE

[15] = system: Staphylococcus aureus; assay: Induction of morphological changes in Staphylococcus aureus ATCC 6538 assessed as cell wall swelling at 0.8 uM after 24 hrs by transmission electron microscopy; assay type: functional, organism-based
[16] = system: Staphylococcus aureus; assay: Induction of cell wall damage in Staphylococcus aureus ATCC 6538 assessed as emergence of solute loss at 0.8 uM after 24 hrs by transmission electron microscopy; assay type: functional, organism-based

Row | Molecule | MIC [1] | MBC [2] | MIC [3] | MIC [4] | MBC [5] | MIC [6] | MIC [7] | MIC [8] | growth inhibition (GI) [9] | Activity [10] | Activity [11] | Activity [12] | growth inhibition (GI) [13] | IC50 [14] | Activity [15] | Activity [16]
1 | GENTAMICIN | 1.6 µM | 3.2 µM | 0.125 µM | 0.8 µM | 3.2 µM | 1 µM | > 200 µM | – | – | – | – | – | – | – | – | –
2 | CSc1[nH]c2ccc(C(F)(F)F)cc2c(=O)c1C(C)=O | 50 µM (≈ 15.1 µg/mL) | 25 µM (≈ 7.53 µg/mL) | > 200 µM | 6.25 µM (≈ 1.88 µg/mL) | > 200 µM | > 200 µM | > 200 µM | > 200 µM | – | – | – | – | – | – | – | –
3 | CSc1[nH]c2cc(C(F)(F)F)ccc2c(=O)c1C(C)=O | 50 µM (≈ 15.1 µg/mL) | 6.25 µM (≈ 1.88 µg/mL) | > 200 µM | 3.12 µM (≈ 0.942 µg/mL) | > 200 µM | > 200 µM | > 200 µM | > 200 µM | – | – | – | – | – | – | – | –
4 | CSc1[nH]c2c(C)cccc2c(=O)c1C(C)=O | > 200 µM | – | > 200 µM | > 200 µM | – | > 200 µM | – | > 200 µM | – | – | – | – | – | – | – | –
5 | CSc1[nH]c2c(C(F)(F)F)ccc(C(F)(F)F)c2c(=O)c1C(C)=O | 1.6 µM (≈ 0.591 µg/mL) | 6.25 µM (≈ 2.31 µg/mL) | > 200 µM | 0.8 µM (≈ 0.295 µg/mL) | 6.25 µM (≈ 2.31 µg/mL) | > 200 µM | > 200 µM | 200 µM | Active | Active | Active | Active | inactive | 1.92 µM | Active | Active
6 | CN(C)[C@@H]1C(O)=C(C(N)=O)C(=O)[C@@]2(O)C(O)=C3C(=O)c4c(O)cccc4[C@@](C)(O)[C@H]3C[C@@H]12 [TETRACYCLINE] | 1.6 µM (≈ 0.711 µg/mL) | 0.125 µM (≈ 0.0556 µg/mL) | 0.25 µM (≈ 0.111 µg/mL) | 0.0325 µM (≈ 0.0144 µg/mL) | 3.2 µM (≈ 1.42 µg/mL) | 2 µM (≈ 0.889 µg/mL) | 200 µM (≈ 88.9 µg/mL) | – | – | – | – | – | – | – | – | –
7 | CC(=O)c1c([S+](C)[O-])[nH]c2ccc(C(F)(F)F)cc2c1=O (stereo not drawn) | 3.12 µM (≈ 0.992 µg/mL) | 50 µM (≈ 15.9 µg/mL) | > 200 µM | 12.5 µM (≈ 3.97 µg/mL) | 50 µM (≈ 15.9 µg/mL) | > 200 µM | > 200 µM | > 200 µM | – | – | – | – | – | – | – | –
8 | CSc1[nH]c2cc(Br)ccc2c(=O)c1C(C)=O | 200 µM (≈ 62.4 µg/mL) | – | > 200 µM | 12.5 µM (≈ 3.9 µg/mL) | – | > 200 µM | – | > 200 µM | – | – | – | – | – | – | – | –
9 | CSc1[nH]c2ccc(OC(F)(F)F)cc2c(=O)c1C(C)=O | 12.5 µM (≈ 3.97 µg/mL) | 25 µM (≈ 7.93 µg/mL) | > 200 µM | 3.12 µM (≈ 0.992 µg/mL) | 25 µM (≈ 7.93 µg/mL) | > 200 µM | > 200 µM | > 200 µM | – | – | – | – | – | – | – | –
10 | COc1cccc2c(=O)c(C(C)=O)c(SC)[nH]c12 | > 200 µM | – | > 200 µM | > 200 µM | – | > 200 µM | – | > 200 µM | – | – | – | – | – | – | – | –
11 | CSc1[nH]c2c(Cl)cc([N+](=O)[O-])cc2c(=O)c1C(C)=O | 6.25 µM (≈ 1.95 µg/mL) | > 200 µM | > 200 µM | 12.5 µM (≈ 3.91 µg/mL) | > 200 µM | > 200 µM | > 200 µM | > 200 µM | – | – | – | – | – | 80.3 µM | – | –
12 | CSc1[nH]c2c(F)ccc(C(F)(F)F)c2c(=O)c1C(C)=O | 3.12 µM (≈ 0.998 µg/mL) | 6.25 µM (≈ 2 µg/mL) | > 200 µM | 0.8 µM (≈ 0.255 µg/mL) | 6.25 µM (≈ 2 µg/mL) | > 200 µM | > 200 µM | 200 µM | – | – | – | – | – | 2.47 µM | – | –
13 | CSc1[nH]c2cc(C(F)(F)F)c(C#N)cc2c(=O)c1C(C)=O | 1.6 µM (≈ 0.522 µg/mL) | 25 µM (≈ 8.16 µg/mL) | > 200 µM | 0.8 µM (≈ 0.261 µg/mL) | 25 µM (≈ 8.16 µg/mL) | > 200 µM | > 200 µM | 200 µM | Active | – | – | – | inactive | 6.47 µM | – | –
14 | CSc1[nH]c2ccc(Br)cc2c(=O)c1C(C)=O | 200 µM (≈ 62.4 µg/mL) | – | > 200 µM | 25 µM (≈ 7.8 µg/mL) | – | > 200 µM | – | > 200 µM | – | – | – | – | – | – | – | –
15 | CSc1[nH]c2ccc(C)cc2c(=O)c1C(C)=O | > 200 µM | – | > 200 µM | > 200 µM | – | > 200 µM | – | > 200 µM | – | – | – | – | – | – | – | –
16 | COc1ccc(C(F)(F)F)c2c(=O)c(C(C)=O)c(SC)[nH]c12 | > 200 µM | – | > 200 µM | > 200 µM | – | > 200 µM | – | > 200 µM | – | – | – | – | – | – | – | –
17 | COc1ccc2[nH]c(SC)c(C(C)=O)c(=O)c2c1 | > 200 µM | – | > 200 µM | > 200 µM | – | > 200 µM | – | > 200 µM | – | – | – | – | – | – | – | –
18 | CSc1[nH]c2c(Br)cccc2c(=O)c1C(C)=O | > 200 µM | 25 µM (≈ 7.8 µg/mL) | > 200 µM | 6.25 µM (≈ 1.95 µg/mL) | > 200 µM | > 200 µM | > 200 µM | > 200 µM | – | – | – | – | – | – | – | –
19 | C[C@@H]1[C@H](O)[C@@H](C)/C=C/C=C/C=C/C=C/C=C/C=C/C=C/[C@H](O[C@@H]2O[C@H](C)[C@@H](O)[C@H](N)[C@@H]2O)C[C@@H]2O[C@](O)(C[C@@H](O)C[C@@H](O)[C@H](O)CC[C@@H](O)C[C@@H](O)CC(=O)O[C@H]1C)C[C@H](O)[C@H]2C(=O)O [AMPHOTERICIN B] | – | – | – | – | – | – | – | 0.2 µg/mL | – | – | – | – | – | – | – | –
20 | CCSc1[nH]c2ccc(C(F)(F)F)cc2c(=O)c1C(C)=O | 25 µM (≈ 7.88 µg/mL) | 25 µM (≈ 7.88 µg/mL) | > 200 µM | 6.25 µM (≈ 1.97 µg/mL) | 50 µM (≈ 15.8 µg/mL) | > 200 µM | > 200 µM | > 200 µM | – | – | – | – | – | 16.2 µM | – | –
21 | CC(=O)c1c(O)[nH]c2ccc(C(F)(F)F)cc2c1=O | > 200 µM | – | > 200 µM | > 200 µM | – | > 200 µM | – | > 200 µM | – | – | – | – | – | – | – | –
22 | CSc1[nH]c2c(Cl)cc(C(F)(F)F)cc2c(=O)c1C(C)=O | 1.6 µM (≈ 0.537 µg/mL) | 6.25 µM (≈ 2.1 µg/mL) | > 200 µM | 0.8 µM (≈ 0.269 µg/mL) | 6.25 µM (≈ 2.1 µg/mL) | > 200 µM | > 200 µM | > 200 µM | Active | – | – | – | inactive | 8.01 µM | – | –
23 | CSc1[nH]c2c(Cl)ccc(C(F)(F)F)c2c(=O)c1C(C)=O | 1.6 µM (≈ 0.537 µg/mL) | 12.5 µM (≈ 4.2 µg/mL) | > 200 µM | 0.8 µM (≈ 0.269 µg/mL) | 12.5 µM (≈ 4.2 µg/mL) | > 200 µM | > 200 µM | > 200 µM | Active | – | – | – | inactive | – | – | –
24 | CC1COc2c(N3CCN(C)CC3)c(F)cc3c(=O)c(C(=O)O)cn1c23 (stereo not drawn) [OFLOXACIN] | 0.8 µM (≈ 0.289 µg/mL) | 0.5 µM (≈ 0.181 µg/mL) | 0.5 µM (≈ 0.181 µg/mL) | 0.125 µM (≈ 0.0452 µg/mL) | 1.6 µM (≈ 0.578 µg/mL) | 4 µM (≈ 1.45 µg/mL) | 100 µM (≈ 36.1 µg/mL) | – | – | – | – | – | – | – | – | –
25 | OC(Cn1cncn1)(Cn1cncn1)c1ccc(F)cc1F [FLUCONAZOLE] | – | – | – | – | – | – | – | 1 µg/mL | – | – | – | – | – | – | – | –
26 | CSc1[nH]c2c(Cl)cccc2c(=O)c1C(C)=O | > 200 µM | – | > 200 µM | > 200 µM | – | > 200 µM | – | > 200 µM | – | – | – | – | – | – | – | –
27 | CSc1[nH]c2ccccc2c(=O)c1C(C)=O | > 200 µM | – | > 200 µM | > 200 µM | – | > 200 µM | – | > 200 µM | – | – | – | – | – | – | – | –
